The numbers were not newly measured in patent publication US9291622B2, “Complement assays and uses thereof” (Apellis Pharmaceuticals, Inc., priority 2009, dated 2016), which cites them from elsewhere.

[ ]: non-standard residue; d: D form. Trp(5-F) = N[C@@H](Cc1c[nH]c2ccc(F)cc12)C(=O)O; Trp(5-Me) = Cc1ccc2[nH]cc(C[C@H](N)C(=O)O)c2c1; Trp(6-F) = N[C@@H](Cc1c[nH]c2cc(F)ccc12)C(=O)O; Bpa = N[C@@H](Cc1ccc(C(=O)c2ccccc2)cc1)C(=O)O; 1Nal = N[C@@H](Cc1cccc2ccccc12)C(=O)O; 2Nal = N[C@@H](Cc1ccc2ccccc2c1)C(=O)O; Igl = N[C@H](C(=O)O)C1Cc2ccccc2C1; Dht = dihydrotryptophan

In this series the test system is complement activation. The settings on record: fold activity relative to compstatin (H-ICVVQDWGHHRCT-CONH2).
With “Ac-ICV(1-Nal)QDWGAHRCT-COOH (Ac-ICV[1Nal]QDWGAHRCT-OH; cysteine pairing not given here) [Ac V4(1-Nal)/H9A —OH]”, the Activity over compstatin was 30 × more.
On to “Ac-ICV(2-Igl)QDWGAHRCT-CONH2 (Ac-ICV[Igl]QDWGAHRCT-NH2; cysteine pairing not given here) [Ac-V42Igl/H9A]”, for which the Activity over compstatin is 39 × more.
Regarding “Ac-ICV(2-Igl)QDWGAHRCT-COOH (Ac-ICV[Igl]QDWGAHRCT-OH; cysteine pairing not given here) [Ac-V42Igl/H9A —OH]”, the Activity over compstatin was 37 × more.
In the case of “Ac-ICV(2-Nal)QDWGAHRCT-CONH2 (Ac-ICV[2Nal]QDWGAHRCT-NH2; cysteine pairing not given here) [Ac-V4(2-Nal)/H9A]”, the Activity over compstatin was 99 × more.
Consider “Ac-ICV(2-Nal)QDWGAHRCT-COOH (Ac-ICV[2Nal]QDWGAHRCT-OH; cysteine pairing not given here) [Ac V4(2-Nal)/H9A —OH]”, for which the Activity over compstatin is 38 × more.
Take “Ac-ICV(5-methyl-W)QDWGAHRCT-CONH2 (Ac-ICV[Trp(5-Me)]QDWGAHRCT-NH2; cysteine pairing not given here) [Ac-V4(5-MeW)/H9A]”: the Activity over compstatin is reported as 67 × more.
Take “Ac-ICV(5fW)QD(5fW)GAHRCT-CONH2 (Ac-ICV[Trp(5-F)]QD[Trp(5-F)]GAHRCT-NH2; cysteine pairing not given here) [Ac-V4(5fW)/W7(5fW)/H9A]”: the Activity over compstatin was 161 × more.
Regarding “Ac-ICV(5fW)QDWGAHRCT-CONH2 (Ac-ICV[Trp(5-F)]QDWGAHRCT-NH2; cysteine pairing not given here) [Ac-V4(5fW)/H9A]”, the Activity over compstatin was 31 × more.
On to “Ac-ICV(Bpa)QDWGAHRCT-CONH2 (Ac-ICV[Bpa]QDWGAHRCT-NH2; cysteine pairing not given here) [Ac-V4(Bpa)/H9A]”, for which the Activity over compstatin is 86 × more.
Regarding “Ac-ICV(Bpa)QDWGAHRCT-COOH (Ac-ICV[Bpa]QDWGAHRCT-OH; cysteine pairing not given here) [Ac-V4(Bpa)/H9A —OH]”, the Activity over compstatin is recorded as 49 × more.
With “Ac-ICVDhtQDWGAHRCT-COOH (Ac-ICV[Dht]QDWGAHRCT-OH; cysteine pairing not given here) [Ac-V4Dht/H9A —OH]”, the Activity over compstatin is on record as 5 × more.
On to Ac-ICVVQDWGHHRCT-CONH2 [Ac-compstatin], for which the Activity over compstatin was 3 × more.
Regarding “Ac-ICVWQD(5fW)GAHRCT-CONH2 (Ac-ICVWQD[Trp(5-F)]GAHRCT-NH2; cysteine pairing not given here) [Ac-V4W/W7(5fW)/H9A]”, the Activity over compstatin is on record as 121 × more.
“Ac-ICVWQDWGAHRCT-CONH2 (Ac-ICVWQDWGAHRCT-NH2; cysteine pairing not given here) [Ac-V4W/H9A]”: the Activity over compstatin was 45 × more.
As to “Ac-ICVWQDWGAHRCdT-COOH [Ac-V4W/H9A/T13dT —OH]”, the Activity over compstatin is recorded as 55 × more.
Consider Ac-ICVYQDWGAHRCT-CONH2 [Ac-V4Y/H9A], for which the Activity over compstatin was 14 × more.
Turning to “H-GICV(6fW)QD(6fW)GAHRCTN-COOH (H-GICV[Trp(6-F)]QD[Trp(6-F)]GAHRCTN-OH; cysteine pairing not given here) [+G/V4(6fW)/W7(6fW)H9A +N —OH]”, the Activity over compstatin is 126 × more.
